Data published in PubChem BioAssay AID434946 (Broad Institute, 2010).
pEC50: −log10 of the molar value. Active and inactive are the calls of the source.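 The calls were made as follows: active = compounds lowering the growth signal with a fitted EC50 no more than tenfold above the top dose; inconclusive = flat fit with partial effect, or a poor fit; inactive = the rest.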

Tested on: NIH 3T3 fibroblast viability, Alamar Blue fluorescence, 48 h
Assay: NIH 3T3 fibroblast cytotoxicity, no fluconazole, dose response, cytotoxicity control for Candida fluconazole-potentiator project, cell-based, alamar blue fluorescence (AID 434946)

SMILES | EC50 | pEC50
Cc1oc2c(F)c(F)c(F)c(F)c2c1S(=O)(=O)Nc1cccc(C(F)(F)F)c1 | > 26 µM (inactive) | –
O=C(Nc1nnc(-c2ccc3c(c2)CCCC3)o1)c1ccc(Cl)cc1Cl | – | 4.73
CCOC(=O)N1C(=O)C2(CCCCC2)N(c2ccc(C)cc2)C1=S | – | 6.05
Nc1nccnc1C(=O)Nc1nnc(SCc2ccc(Cl)cc2)s1 | > 26 µM (inactive) | –
O=C(Nc1nnc(CCc2ccccc2)s1)c1ccco1 | > 26 µM (inactive) | –
CCOC(=O)c1c(-c2ccccc2Cl)cn2ccccc12 | > 26 µM (inactive) | –
O=C(Oc1c(Cl)cc(Cl)c2cccnc12)c1cccs1 | – | 5.70
Cc1ccc(C(=O)c2coc3c2C(=O)C(=O)c2ccccc2-3)cc1 | > 26 µM (inactive) | –
COc1ccc(-n2nc(C(=O)NCC(=O)N3CCN(c4ccccc4)CC3)c3ccccc3c2=O)c(OC)c1 | > 26 µM (inactive) | –
O=C(Nc1sc2c(c1C(=O)c1ccc(Cl)cc1)CCCC2)c1cccnc1 | > 26 µM (inactive) | –
CCc1ccc2c(c1)/C(=C/C(=O)c1cccs1)C(=O)N2 | > 26 µM (inactive) | –
COc1cc2c(cc1NC(=O)c1ccco1)CCCC2 | > 26 µM (inactive) | –
CC(C)N1CCc2c(sc(NC(=O)c3nc4ccccc4s3)c2C(N)=O)C1 | > 26 µM (inactive) | –
O=C(NNC1=C(C(=O)C(F)(F)F)CCC1)c1ccc(Cl)cc1 | > 26 µM (inactive) | –
Clc1ccc2c(c1)C(c1cccs1)=NNC(c1cccnc1)=N2 | > 26 µM (inactive) | –
O=C(Nc1nnc(SCc2ccc(Cl)cc2)s1)c1ccc2ccccc2n1 | > 26 µM (inactive) | –
O=C(Nc1nc(-c2ccccn2)cs1)c1ccc(Br)s1 | – | 4.93
Cc1ccc(/C=C/C(=O)c2ccccc(=O)c2O)cc1C | > 26 µM (inactive) | –
COc1ccc(-c2nnc(NC(=O)c3ccc(F)cc3)o2)cc1 | > 26 µM (inactive) | –
O=C1/C(=C\c2ccccc2)CCc2c1[nH]c1ccccc21 | > 26 µM (inactive) | –
Cc1ccc(C(=O)Nc2cccc(-c3cn4ccccc4n3)c2)cc1 | > 26 µM (inactive) | –
CC(C)COCc1ccc(O)c2ncccc12 | – | 4.71
O=C(Nc1nnc(-c2ccco2)o1)c1ccc(Cl)cc1 | > 26 µM (inactive) | –
c1ccc2c(c1)OCC(CNc1ncnc3sccc13)O2 (configuration not stated) | > 26 µM (inactive) | –
CCCC(=O)NC(c1ccc(Cl)cc1)c1ccc2cccnc2c1O (configuration not stated) | – | 4.67
Cc1ccc(Nc2nc(N)c([N+](=O)[O-])c(N3CCC(C)CC3)n2)cc1C | > 26 µM (inactive) | –
Cc1nc2ccccc2cc1OCc1ccc(F)cc1 | > 26 µM (inactive) | –
